Data on 1 molecule can be found in PMC11212559 (Emerging Microbes & Infections, 2024).

Each structure is given as a SMILES string.

The target in the assay is E1CTD (Monkeypox virus Zaire-96-I-16, UniProt Q8V4Y7).

As for `C[S+](CC[C@H](N)C(=O)O)C[C@H]1O[C@@H](n2cnc3c(N)ncnc32)[C@H](O)[C@@H]1O` (stereo partly shown) [SAM], the “no detectable binding ability” value is given as “the E1CTD also shows no detectable binding ability to SAM”.
